Reference: PubChem BioAssay (NCI)
Values joined by “and” are separate entries in the source; they are usually repeats but may differ in a detail not shown here. Equal values may be shown once.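 1) Cells in 96-well plates. 2) Compound, 48 h, 5 concentrations. 3) Linear interpolation between surrounding doses. 4) Unreached endpoint = highest concentration. Abbreviation: GI50, concentration required for 50% inhibition of growth. At the TGI there is no net growth.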 Where a SMILES comes first, the peptide text is derived from it. [ ]: non-standard residue; d: D form. The star is where a group is joined. X28 = COC1=CC(=O)N(C(=O)[C@@H](O*)C(C)C)[C@H]1Cc1ccccc1; NMeL = CN[C@@H](CC(C)C)C(=O)O; Hexanoyl = CCCCCC(=O)*; Boc = CC(C)(C)OC(=O)*; OBn = c1ccc(CO*)cc1; Bn = c1ccc(C*)cc1

Assays:
Assay in all cases: NCI anticancer screen, dose series, 48 h
U251 CNS = tested on: U251 CNS
XF 498 CNS = tested on: XF 498 CNS
LXFL 529 NSCLC = tested on: LXFL 529 NSCLC
M19-MEL melanoma = tested on: M19-MEL melanoma
DLD-1 colon = tested on: DLD-1 colon
KM20L2 colon = tested on: KM20L2 colon
DMS 273 small cell lung = tested on: DMS 273 small cell lung
SNB-78 CNS = tested on: SNB-78 CNS
HOP-18 NSCLC = tested on: HOP-18 NSCLC
DMS 114 small cell lung = tested on: DMS 114 small cell lung
RXF-631 renal = tested on: RXF-631 renal

Cc1cc2nc3c(C#N)c(-c4ccccc4)/c(=C\Nc4cccc(C(F)(F)F)c4)c(=O)n3c2cc1C
TGI (U251 CNS): > 100 µM

OC1(c2ccc(Cl)cc2)c2ccccc2C2=Nc3ccccc3CN21 (stereo unspecified)
TGI (U251 CNS): > 100 µM

C(=N\NC1=NCCCN1)/c1ccc(-c2cn3cc(/C=N/NC4=NCCCN4)ccc3n2)cc1
TGI (U251 CNS): > 100 µM

c1ccc(COc2nc3ccc(C45CC6CC(CC(C6)C4)C5)cc3[nH]2)cc1
TGI (U251 CNS): > 78.5 µM

N=C(/C=C/c1ccc(-c2cn3cc(/C=C/C(=N)N4CCOCC4)ccc3n2)cc1)N1CCOCC1
TGI (U251 CNS): > 100 µM

CC1(C)COC(c2cccc(C3=NC(C)(C)CO3)c2)=N1
TGI (U251 CNS): > 100 µM

CC(C)CC(NC(=O)C(Cc1ccccc1)NC(=O)C(COCc1ccccc1)NC(=O)OC(C)(C)C)C(=O)OCc1ccccc1 (stereo not drawn) (Boc-Ser(Bn)-Phe-Leu-OBn; configuration not given here)
TGI (U251 CNS): 53.2 µM

CCCCc1ccc(N2C(=O)c3cc(C)cnc3S2(=O)=O)cc1
TGI (U251 CNS): > 100 µM

CCCCCC(=O)N[C@H](C(=O)N[C@H](C(=O)N(C)[C@@H](CC(C)C)C(=O)N1CCC[C@H]1C(=O)N1CCC[C@H]1C(=O)O[C@H](C(=O)N1C(=O)C=C(OC)[C@@H]1Cc1ccccc1)C(C)C)C(C)C)C(C)C (Hexanoyl-VV[NMeL]PP-X28)
TGI (U251 CNS): > 100 µM

O=c1[nH]c2ccc(CC(=S)N3CCN(c4ccccc4)CC3)cc2s1
TGI (U251 CNS): 21.2 µM

Cn1c2ccccc2n2c(=O)c(-c3ccc(O)cc3)nnc12
TGI (U251 CNS): 85.8 µM

Fc1ccc(C(=NCc2ccccc2)N2CCOCC2)cc1
TGI (U251 CNS): > 100 µM

Cc1cccc(Nc2cn(CCOc3ccccc3)c(=O)[nH]c2=O)c1
TGI (U251 CNS): > 100 µM

COc1ccc(NS(=O)C2CCCCC2)cc1 (stereo unspecified)
TGI (U251 CNS): > 100 µM

COc1ccc(OC)c2c1C[C@@H]1C(C#N)N3[C@H](Cc4c(OC)ccc(OC)c4[C@@H]3C)C(=O)N1[C@H]2C (stereo partly specified)
TGI (U251 CNS): 4.91 µM

Cc1c(Cl)cccc1NC(=O)C(=O)C1C(=O)NC(=O)NC1=O
TGI (XF 498 CNS): > 100 µM | TGI (LXFL 529 NSCLC): > 100 µM | TGI (M19-MEL melanoma): > 100 µM | TGI (DLD-1 colon): > 100 µM | TGI (KM20L2 colon): > 100 µM | TGI (DMS 273 small cell lung): > 100 µM | TGI (SNB-78 CNS): > 100 µM | TGI (U251 CNS): > 100 µM | TGI (HOP-18 NSCLC): > 100 µM

CC(C)C[C@H](NC(=O)[C@@H](Cc1cccc2ccccc12)NC(=O)N1CCOCC1)B(O)O
TGI (U251 CNS): 17.7 µM

COC(=O)C1Cc2c([nH]c3ccccc23)-c2[nH]c3ccccc3c2CC(NC(C)=O)C(=O)NCC(=O)N1 (stereo unspecified)
TGI (U251 CNS): > 100 µM

CCCCN(CCCC)CC(=O)c1ccc2cc(Cl)c3ccccc3c2c1
TGI (U251 CNS): 68.8 µM

CCN(CC)P1(=S)Oc2ccc3ccccc3c2-c2c(ccc3ccccc23)O1
TGI (U251 CNS): > 100 µM

COC(=O)c1c(C)nc(C)c(N=O)c1-c1ccccc1C(F)(F)F
TGI (U251 CNS): 34.5 µM

CCOC(=O)C1(C(=O)OCC)C[C@H]2CON=C2[C@@H]1c1ccc(C(F)(F)F)cc1
TGI (U251 CNS): > 100 µM

COCOc1cc(OC)ccc1C=O
TGI (U251 CNS): > 100 µM

CCC(C#N)N(Cc1cccc(CN(C(C)=O)C(C#N)CC)c1)C(C)=O (stereo unspecified)
TGI (U251 CNS): > 100 µM

COc1ccccc1NC(=S)N/N=C(/c1ccccc1)c1ccccn1
TGI (U251 CNS): 14.9 µM

CC1OC(OC2C(CO)OC(O[C@H]3CC[C@@]4(C)C(=CC[C@H]5[C@@H]6C[C@@H]7O[C@](O)(CC[C@@H](C)COC8OC(CO)C(O)C(O)C8O)[C@@H](C)[C@@H]7[C@@]6(C)CC[C@@H]54)C3)C(OC3OC(C)C(O)C(O)C3O)C2O)C(O)C(O)C1O (stereo partly specified)
TGI (U251 CNS): 3.62 µM

CCOC(=O)c1cc(-c2ccc(OC)c(OC)c2)cn1C
TGI (U251 CNS): > 10 µM

C=C1C(=O)OC2C(C)C3C=CC(=O)[C@@]3(C)C(OC(=O)/C(C)=C/C)C1[C@@H]2OC(C)=O (stereo partly specified)
TGI (XF 498 CNS): 2.53 µM | TGI (LXFL 529 NSCLC): 1.16 µM | TGI (M19-MEL melanoma): 1.84 µM | TGI (DLD-1 colon): 1.79 µM | TGI (DMS 114 small cell lung): 2.37 µM | TGI (KM20L2 colon): 2.99 µM | TGI (DMS 273 small cell lung): 1.81 µM | TGI (SNB-78 CNS): 2.8 µM | TGI (U251 CNS): 2.36 µM | TGI (HOP-18 NSCLC): 3.28 µM

C=C(C)C1CC2=C(C(=O)OC)C=C(O2)C(C(=C)C)[C@@H]2OC(=O)/C(=C\C1O)[C@H]2N(C)C (stereo partly specified)
TGI (U251 CNS): 33 µM

CCc1nnc2sc(-c3ccc(-c4ccc(Cl)cc4Cl)o3)nn12
TGI (U251 CNS): > 100 µM

CCOC(=O)c1ccc(N=C/C=C(\Nc2ccc(C(=O)OCC)cc2)c2ccc3ccccc3c2)cc1
TGI (U251 CNS): > 100 µM

COC(=O)CCCc1ccc2c(c1)CCC2
TGI (U251 CNS): > 100 µM

COC(=O)c1ccc(/C=C/C2=CC(=O)C=CC2=O)cc1
TGI (U251 CNS): 41.7 µM

CC(=O)OCC1OC(n2c(-c3ccccc3)c(N=Nc3ccc(Cl)cc3)c(C)c(C#N)c2=S)C(OC(C)=O)C(OC(C)=O)C1OC(C)=O (stereo unspecified)
GI50 (U251 CNS): 3.79 µM and 24 µM | TGI (U251 CNS): 15.6 µM and 74.4 µM

N#CC(C(=O)c1ccccc1F)c1nc2cc(C(F)(F)F)ccc2s1 (stereo unspecified)
TGI (U251 CNS): > 100 µM

CCOC(=O)c1c(OCC)[nH]c(=O)c(C(c2ccc(F)cc2)c2c(O)c(C(=O)OCC)c(OCC)[nH]c2=O)c1O
TGI (U251 CNS): 36.3 µM

CC(=O)OC1COC(N2C(=O)C(=O)c3cc(Br)c([N+](=O)[O-])cc32)C(OC(C)=O)C1OC(C)=O (stereo unspecified)
TGI (XF 498 CNS): > 100 µM | TGI (LXFL 529 NSCLC): > 100 µM | TGI (M19-MEL melanoma): 62.5 µM | TGI (DLD-1 colon): > 100 µM | TGI (DMS 114 small cell lung): 65.8 µM | TGI (KM20L2 colon): > 100 µM | TGI (DMS 273 small cell lung): > 100 µM | TGI (SNB-78 CNS): > 100 µM | TGI (RXF-631 renal): > 100 µM | TGI (U251 CNS): > 100 µM | TGI (HOP-18 NSCLC): > 100 µM

CC(C)=NN/C(=N\S(=O)(=O)c1cc(Cl)c(Oc2ccc([N+](=O)[O-])cc2Cl)c(Cl)c1)Nc1ccc(Cl)cc1
TGI (U251 CNS): > 100 µM

CC(=O)OC(C)(C)C1CCC(C)(C(O)COc2ccc(CCNC(=O)c3ccccc3)cc2)O1 (stereo unspecified)
TGI (XF 498 CNS): 33.4 µM | TGI (LXFL 529 NSCLC): > 100 µM | TGI (M19-MEL melanoma): > 100 µM | TGI (DLD-1 colon): > 100 µM | TGI (DMS 114 small cell lung): 62.2 µM | TGI (KM20L2 colon): > 100 µM | TGI (DMS 273 small cell lung): > 100 µM | TGI (SNB-78 CNS): > 100 µM | TGI (U251 CNS): > 100 µM | TGI (HOP-18 NSCLC): > 100 µM
